# Earlier results, collected in US20060134230A1, “Weight loss composition and formulation” (priority 2004, published 2006).
# Legend:
# [1] = system: oxidative phosphorylation
# fatty acid synthase = fatty acid synthase (Homo sapiens, UniProt P49327)
# 3T3-L1 = 3T3-L1 preadipocyte
# lipases = conditions: in vivo
# [2] = system: glucose transport at the brush border of the small intestine; conditions: in vivo
# Sequence of fatty acid synthase (P49327 whole entry, species assumed): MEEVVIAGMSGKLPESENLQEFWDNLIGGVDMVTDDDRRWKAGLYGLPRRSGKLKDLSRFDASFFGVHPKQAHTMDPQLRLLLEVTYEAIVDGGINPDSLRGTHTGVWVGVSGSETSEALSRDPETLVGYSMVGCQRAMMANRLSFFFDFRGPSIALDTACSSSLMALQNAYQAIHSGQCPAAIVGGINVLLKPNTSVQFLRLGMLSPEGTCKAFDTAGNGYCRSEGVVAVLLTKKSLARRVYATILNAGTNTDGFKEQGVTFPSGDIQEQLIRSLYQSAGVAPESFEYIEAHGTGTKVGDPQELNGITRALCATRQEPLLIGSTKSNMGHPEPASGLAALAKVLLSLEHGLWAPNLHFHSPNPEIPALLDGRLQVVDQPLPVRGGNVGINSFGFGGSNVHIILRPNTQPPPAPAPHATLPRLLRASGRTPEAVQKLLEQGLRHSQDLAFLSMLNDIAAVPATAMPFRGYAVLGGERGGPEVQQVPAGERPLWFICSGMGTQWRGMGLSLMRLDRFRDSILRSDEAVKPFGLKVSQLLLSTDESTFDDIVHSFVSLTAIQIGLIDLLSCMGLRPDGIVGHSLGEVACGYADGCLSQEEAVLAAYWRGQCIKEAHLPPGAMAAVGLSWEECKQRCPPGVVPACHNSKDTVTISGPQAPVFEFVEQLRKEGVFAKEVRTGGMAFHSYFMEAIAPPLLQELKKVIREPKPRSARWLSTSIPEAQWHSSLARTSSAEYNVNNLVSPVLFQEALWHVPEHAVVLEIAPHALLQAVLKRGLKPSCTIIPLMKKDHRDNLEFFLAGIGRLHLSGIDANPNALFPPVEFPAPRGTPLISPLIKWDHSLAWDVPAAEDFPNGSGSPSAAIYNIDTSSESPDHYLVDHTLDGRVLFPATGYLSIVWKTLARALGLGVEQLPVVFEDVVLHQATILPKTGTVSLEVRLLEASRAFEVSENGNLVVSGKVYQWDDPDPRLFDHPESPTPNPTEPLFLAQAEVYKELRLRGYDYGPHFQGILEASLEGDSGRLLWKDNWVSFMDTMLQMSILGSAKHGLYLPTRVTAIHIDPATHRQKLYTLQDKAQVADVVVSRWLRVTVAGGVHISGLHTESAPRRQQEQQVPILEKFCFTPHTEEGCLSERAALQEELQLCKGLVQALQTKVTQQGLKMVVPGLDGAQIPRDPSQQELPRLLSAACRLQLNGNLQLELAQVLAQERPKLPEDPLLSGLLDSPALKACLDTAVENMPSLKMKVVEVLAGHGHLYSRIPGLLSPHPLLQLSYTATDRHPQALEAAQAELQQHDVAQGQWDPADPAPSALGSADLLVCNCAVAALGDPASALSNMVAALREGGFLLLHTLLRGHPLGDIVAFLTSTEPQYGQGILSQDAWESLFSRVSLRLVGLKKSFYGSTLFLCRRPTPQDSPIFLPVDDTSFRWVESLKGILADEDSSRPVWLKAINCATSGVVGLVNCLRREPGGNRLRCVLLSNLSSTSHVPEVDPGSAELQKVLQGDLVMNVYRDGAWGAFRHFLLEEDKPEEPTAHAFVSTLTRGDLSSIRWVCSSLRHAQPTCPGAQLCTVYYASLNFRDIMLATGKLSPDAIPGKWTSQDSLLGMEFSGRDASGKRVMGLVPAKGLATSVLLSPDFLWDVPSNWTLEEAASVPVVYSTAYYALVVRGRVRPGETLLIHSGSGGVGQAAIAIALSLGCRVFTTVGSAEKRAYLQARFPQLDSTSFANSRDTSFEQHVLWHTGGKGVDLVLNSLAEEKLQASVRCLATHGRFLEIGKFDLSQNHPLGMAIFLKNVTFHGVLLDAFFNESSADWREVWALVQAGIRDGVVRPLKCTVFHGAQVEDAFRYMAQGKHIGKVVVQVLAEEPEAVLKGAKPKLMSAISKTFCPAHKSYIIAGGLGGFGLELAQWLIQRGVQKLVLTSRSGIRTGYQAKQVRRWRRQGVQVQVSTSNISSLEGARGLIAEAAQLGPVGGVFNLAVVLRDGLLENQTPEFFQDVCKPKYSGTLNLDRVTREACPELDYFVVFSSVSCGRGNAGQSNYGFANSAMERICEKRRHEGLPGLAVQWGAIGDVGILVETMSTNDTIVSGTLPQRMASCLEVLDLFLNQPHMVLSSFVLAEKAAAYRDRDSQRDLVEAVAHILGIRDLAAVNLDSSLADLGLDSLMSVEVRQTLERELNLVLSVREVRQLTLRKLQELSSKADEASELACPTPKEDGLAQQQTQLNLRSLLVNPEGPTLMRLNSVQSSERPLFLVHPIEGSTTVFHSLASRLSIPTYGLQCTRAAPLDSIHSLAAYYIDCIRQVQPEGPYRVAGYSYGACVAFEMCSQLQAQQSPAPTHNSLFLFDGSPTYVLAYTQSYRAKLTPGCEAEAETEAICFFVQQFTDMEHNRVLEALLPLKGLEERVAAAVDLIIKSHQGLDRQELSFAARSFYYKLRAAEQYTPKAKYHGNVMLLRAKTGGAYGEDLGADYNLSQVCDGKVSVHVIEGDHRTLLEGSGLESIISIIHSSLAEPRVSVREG
smiles,measurement,setting,value
CC(C)(O)[C@@H]1Cc2cc3ccc(=O)oc3cc2O1 [marmesin],oxidative uncoupling,[1],act as oxidative uncouplers
"Cc1cc(O)c2c(c1)C(=O)c1cc(O)cc(O)c1C2=O [emodin, 3-methyl-1,6,8-trihydroxy-anthraquinone]",inhibition effect on fatty acid synthase,fatty acid synthase,"inhibition effect on fatty acid synthase, which is dose dependent"
same,inhibition of differentiation of 3T3-L1,3T3-L1,inhibition of differentiation of 3T3-L1
CC(C)=CCOc1c2occc2cc2ccc(=O)oc12 [imperatorin],oxidative uncoupling,[1],act as oxidative uncouplers
CCCCCCCCCCC[C@@H](C[C@@H]1OC(=O)[C@H]1CCCCCC)OC(=O)[C@H](CC(C)C)NC=O [Xenical],dietary fat blocked from being absorbed,lipases,about 30%
CC1(C)CC[C@]2(C(=O)O)CC[C@]3(C)C(=CC[C@@H]4[C@@]5(C)CC[C@H](O)C(C)(C)[C@@H]5CC[C@]43C)[C@@H]2C1 [oleanic acid],glucose transport at the brush border of the small intestine,[2],inhibiting glucose transport at the brush border of the small intestine
same,transfer of glucose from the stomach to the small intestine,[2],suppress the transfer of glucose from the stomach to the small intestine
C=CC(C)(C)c1cc2cc3c(cc2oc1=O)O[C@H](C(C)(C)O)C3 [chalepin],oxidative uncoupling,[1],act as oxidative uncouplers
